# Measurements taken from patent US20240199623A1 (ILDONG PHARMACEUTICAL CO., LTD., priority 2020, published 2024).
# Read-outs that look alike come from different tables or passages of the source.
# Tests used:
# [1] = molecular target: T1, Human recombinant PDE4B 1 (Homo sapiens, UniProt Q07343); experiment: Human phosphodiesterase 4 (PDE4) inhibition, PDE4B 1; format: biochemical; settings: read-out: % inhibition range at 10 uM PDE4B1
# T1 construct: purchased BPS Bioscience; host or cells: insect Sf9 cells
# Description: (§1) […] Human recombinant PDE4A1A, PDE4B 1, PDE4C1 and PDE4D2 are respectively expressed in each host cell (insect Sf9 cells, BPS Bioscience). Preincubation of 10 μM test compounds or vehicle was proceeded with 20 ng/ml PDE4A1A or 4 ng/ml PDE4B 1 or 8 ng/ml PDE4C1 or 5 ng/ml PDE4D2 enzyme in Tris-HCl buffer pH 7.2 for 15 minutes at 25° C. 100 nM fluorescein (FAM) labeled cAMP for another 30 minutes incubation period was added in order to initiate the enzymatic reaction and addition of IMAP binding solution was followed for its termination. Specifically, IMAP complexes with phosphate groups on nucleotide monophosphate generated from cyclic nucleotides through PDE activity. The amount of complex formed is determined by reading spectrofluorimetrical signal at 470 nm/525 nm.
# [2] = Phosphate-buffered saline (PBS) solubility of compounds; format: physicochemical; settings: aqueous buffer, thermodynamic from solid, PBS pH 7.5, 0.5 mg/mL, vortexed 90 min, filtered, LC-MS/MS, read-out: Solubility Range
# Description: PBS solutions (pH 7.5) were prepared according to the following compositions and stored at 4° C. Test compounds were dissolved in PBS (pH 7.5) at 0.5 mg/mL and vortexed for 90 min. The PBS solution was sequentially filtered through a 0.45, 1.2, […] syringe filter. Concentration of test compounds were determined using LC-MS/MS with appropriate dilution of the samples.
# [3] = molecular target: T2, Human recombinant PDE4C1 (Homo sapiens, UniProt Q08493); experiment: Human phosphodiesterase 4 (PDE4) inhibition, PDE4C1; format: biochemical; settings: read-out: % inhibition range at 10 uM PDE4C1
# T2 construct: purchased BPS Bioscience; host or cells: insect Sf9 cells
# Description: as §1
# [4] = molecular target: T3, human wild type-CFTR (Homo sapiens, UniProt P13569); experiment: Cell-based YFP assay; set-up: expressed in transfected cells; host or cells: CHO-K1 (Chinese hamster ovary); settings: CHO-K1 cells expressing human wild type-CFTR and YFP-H148Q/I152L; forskolin 20 μM = 100% activity; read-out: Cell-based YFP Assay (EC50) Concentration Range
# How it was run: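 CHO-K1 cells co-expressing human wild-type CFTR and YFP-H148Q/I152L halide sensor, grown 48 h at 37 °C, then in PBS. YFP quenching by I⁻ influx read at 37 °C after adding 140 mM I⁻ solution, sampled every 0.4 s for 14 s. Triplicates averaged; EC50 fitted.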
# [5] = molecular target: T4, Human recombinant PDE4A1A (Homo sapiens, UniProt P27815); experiment: Human phosphodiesterase 4 (PDE4) inhibition, PDE4A1A; format: biochemical; settings: read-out: % inhibition range at 10 uM PDE4A1A
# T4 construct: purchased BPS Bioscience; host or cells: insect Sf9 cells
# Description: as §1
# [6] = molecular target: T5, Human recombinant PDE4D2 (Homo sapiens, UniProt Q08499); experiment: Human phosphodiesterase 4 (PDE4) inhibition, PDE4D2; format: biochemical; settings: read-out: % inhibition range at 10 uM PDE4D2
# T5 construct: purchased BPS Bioscience; host or cells: insect Sf9 cells
# Description: as §1
# [7] = molecular target: T3, human wild type-CFTR; experiment: Short-circuit current measurement; format: cell-based; set-up: expressed in transfected cells; settings: FRT cells expressing human wild type-CFTR; Forskolin 20 μM signal used as 100% activity; read-out: Short-circuit current measurement (EC50) Concentration range
# How it was run: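 Ussing-chamber short-circuit current in FRT cells expressing human wild-type CFTR, grown on Snapwell inserts. Forskolin, test compounds and CFTRinh-172 added to both apical and basolateral baths; apical membrane current and Isc sampled at 4 Hz.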
# [8] = test system: C57BL/6 female mice; experiment: Scopolamine induced tear volume reduction model; format: in vivo, mouse; settings: scopolamine-injected mice, ophthalmic solution topically on both eyes 3 times a day, phenol red thread; average if evaluated twice
# Description: Seven-week old C57BL/6 female mice were used.
# Scopolamine hydrobromide was purchased from Sigma Aldrich (Cat No. S0929), dissolved in saline, and sterilized prior to use.
# Zone-Quick phenol red thread was obtained from Menicon.
# The test compounds used in this experiment were dissolved in PBS containing 1% of surfactant.
# Scopolamine (0.2 ml of 2.5 mg/mL solution) was injected subcutaneously 3 times a day to induce a decrease in the tear volume in the mouse. At the same time, the ophthalmic solution of test compounds or vehicle were topically administered onto both eyes 3 times a day. Tear volume was measured by phenol red thread before dosing (basal level) and 1 hour after the last administration of scopolamine and ophthalmic solution. The results were obtained by measuring the length of the phenol red thread turning red by tears. The schedule of study is expressed as FIG. 1.
# If the test compound was evaluated twice, the average value was used.
# T2 sequence (Q08493 whole entry): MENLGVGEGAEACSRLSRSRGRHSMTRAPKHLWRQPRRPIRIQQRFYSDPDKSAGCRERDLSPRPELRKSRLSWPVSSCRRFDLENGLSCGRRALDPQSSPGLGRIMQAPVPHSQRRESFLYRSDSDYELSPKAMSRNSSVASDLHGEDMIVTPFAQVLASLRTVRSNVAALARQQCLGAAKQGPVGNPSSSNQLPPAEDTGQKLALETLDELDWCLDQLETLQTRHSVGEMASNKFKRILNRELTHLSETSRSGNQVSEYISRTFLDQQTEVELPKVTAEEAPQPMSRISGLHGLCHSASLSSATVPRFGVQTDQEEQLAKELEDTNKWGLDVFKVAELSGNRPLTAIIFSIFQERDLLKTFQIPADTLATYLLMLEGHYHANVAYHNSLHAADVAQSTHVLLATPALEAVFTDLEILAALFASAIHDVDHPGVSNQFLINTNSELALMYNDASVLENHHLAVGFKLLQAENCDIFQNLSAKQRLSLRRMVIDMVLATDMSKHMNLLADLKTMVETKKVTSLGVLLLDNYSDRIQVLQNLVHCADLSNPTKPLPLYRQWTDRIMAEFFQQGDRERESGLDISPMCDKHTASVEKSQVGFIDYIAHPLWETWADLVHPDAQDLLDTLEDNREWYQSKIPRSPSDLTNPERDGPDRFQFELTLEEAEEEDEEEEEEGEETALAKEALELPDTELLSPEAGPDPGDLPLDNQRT
# T4 sequence (P27815 1-647 isoform P27815-4): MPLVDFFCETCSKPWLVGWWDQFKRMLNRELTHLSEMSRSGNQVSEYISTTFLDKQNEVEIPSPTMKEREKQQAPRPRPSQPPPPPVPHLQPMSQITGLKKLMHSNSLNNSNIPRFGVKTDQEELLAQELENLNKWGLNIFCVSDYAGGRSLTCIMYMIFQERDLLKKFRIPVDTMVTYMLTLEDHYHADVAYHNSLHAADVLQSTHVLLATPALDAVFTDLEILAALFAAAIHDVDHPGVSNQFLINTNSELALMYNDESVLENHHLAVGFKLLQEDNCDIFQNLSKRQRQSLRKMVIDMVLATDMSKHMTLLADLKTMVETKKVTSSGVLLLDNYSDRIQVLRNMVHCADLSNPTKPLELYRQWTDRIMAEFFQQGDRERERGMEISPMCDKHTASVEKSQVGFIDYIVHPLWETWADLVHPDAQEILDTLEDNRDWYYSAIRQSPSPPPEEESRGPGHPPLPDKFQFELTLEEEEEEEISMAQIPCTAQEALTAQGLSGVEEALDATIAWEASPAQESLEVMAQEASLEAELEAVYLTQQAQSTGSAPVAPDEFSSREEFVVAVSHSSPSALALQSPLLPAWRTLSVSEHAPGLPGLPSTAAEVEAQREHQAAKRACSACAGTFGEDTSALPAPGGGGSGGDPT
# T3 sequence (P13569 whole entry): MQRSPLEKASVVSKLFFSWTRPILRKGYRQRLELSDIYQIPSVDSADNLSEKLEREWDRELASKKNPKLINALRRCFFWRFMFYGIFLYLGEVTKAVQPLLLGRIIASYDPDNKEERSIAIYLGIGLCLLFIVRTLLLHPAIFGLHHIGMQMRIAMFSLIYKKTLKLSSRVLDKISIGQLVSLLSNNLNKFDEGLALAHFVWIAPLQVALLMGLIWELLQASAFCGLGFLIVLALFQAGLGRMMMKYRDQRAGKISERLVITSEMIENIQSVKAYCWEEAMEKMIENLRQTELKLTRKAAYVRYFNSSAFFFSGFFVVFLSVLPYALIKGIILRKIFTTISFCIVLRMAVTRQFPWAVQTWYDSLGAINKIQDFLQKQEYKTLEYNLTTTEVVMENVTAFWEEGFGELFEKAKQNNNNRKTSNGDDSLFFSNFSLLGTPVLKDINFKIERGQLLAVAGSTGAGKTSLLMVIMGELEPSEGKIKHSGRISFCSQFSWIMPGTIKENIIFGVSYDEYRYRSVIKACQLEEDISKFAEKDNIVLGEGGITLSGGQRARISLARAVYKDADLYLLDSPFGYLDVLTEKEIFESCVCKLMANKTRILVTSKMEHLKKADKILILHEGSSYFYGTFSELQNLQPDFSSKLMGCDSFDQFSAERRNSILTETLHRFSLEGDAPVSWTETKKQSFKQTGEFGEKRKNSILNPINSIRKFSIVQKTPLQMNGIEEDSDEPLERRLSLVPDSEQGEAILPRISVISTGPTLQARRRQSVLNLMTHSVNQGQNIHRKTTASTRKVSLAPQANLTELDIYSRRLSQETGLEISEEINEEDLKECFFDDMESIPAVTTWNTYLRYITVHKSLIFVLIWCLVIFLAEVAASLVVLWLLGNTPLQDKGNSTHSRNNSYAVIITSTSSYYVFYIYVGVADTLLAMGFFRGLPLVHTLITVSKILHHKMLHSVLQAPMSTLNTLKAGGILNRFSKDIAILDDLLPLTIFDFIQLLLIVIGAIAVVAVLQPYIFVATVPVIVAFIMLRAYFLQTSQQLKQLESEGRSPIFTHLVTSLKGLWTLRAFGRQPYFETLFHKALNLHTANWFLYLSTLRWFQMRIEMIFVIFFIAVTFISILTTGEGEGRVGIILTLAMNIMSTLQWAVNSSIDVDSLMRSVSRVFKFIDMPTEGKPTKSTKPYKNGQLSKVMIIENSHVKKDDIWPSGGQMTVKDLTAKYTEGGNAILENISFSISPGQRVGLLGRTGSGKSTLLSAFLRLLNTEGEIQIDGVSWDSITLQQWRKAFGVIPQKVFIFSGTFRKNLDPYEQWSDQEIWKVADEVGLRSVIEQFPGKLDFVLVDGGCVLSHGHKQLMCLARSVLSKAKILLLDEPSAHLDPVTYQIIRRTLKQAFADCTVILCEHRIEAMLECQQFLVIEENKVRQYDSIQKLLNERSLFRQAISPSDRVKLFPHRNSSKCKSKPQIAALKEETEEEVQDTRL
# T1 sequence (Q07343 whole entry): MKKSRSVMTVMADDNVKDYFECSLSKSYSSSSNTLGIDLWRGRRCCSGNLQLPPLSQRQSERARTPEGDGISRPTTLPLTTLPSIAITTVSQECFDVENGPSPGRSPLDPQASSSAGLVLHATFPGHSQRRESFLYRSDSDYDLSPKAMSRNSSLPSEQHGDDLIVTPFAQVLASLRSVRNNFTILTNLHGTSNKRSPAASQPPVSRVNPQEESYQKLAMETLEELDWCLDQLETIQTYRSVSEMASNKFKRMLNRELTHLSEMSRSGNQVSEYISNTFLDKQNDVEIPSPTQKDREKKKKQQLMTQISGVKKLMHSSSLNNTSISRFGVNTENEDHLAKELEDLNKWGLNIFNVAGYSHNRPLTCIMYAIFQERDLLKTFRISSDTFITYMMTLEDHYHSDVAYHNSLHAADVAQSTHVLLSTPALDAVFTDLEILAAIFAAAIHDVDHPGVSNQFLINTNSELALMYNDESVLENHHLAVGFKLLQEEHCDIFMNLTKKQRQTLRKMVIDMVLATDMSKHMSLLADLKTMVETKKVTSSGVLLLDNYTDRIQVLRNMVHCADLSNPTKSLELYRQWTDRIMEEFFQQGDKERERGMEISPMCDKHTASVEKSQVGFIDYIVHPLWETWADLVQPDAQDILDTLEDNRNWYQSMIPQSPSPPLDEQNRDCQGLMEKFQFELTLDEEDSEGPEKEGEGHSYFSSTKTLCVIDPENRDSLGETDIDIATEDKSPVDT
# T5 sequence (Q08499 303-809 limits assumed): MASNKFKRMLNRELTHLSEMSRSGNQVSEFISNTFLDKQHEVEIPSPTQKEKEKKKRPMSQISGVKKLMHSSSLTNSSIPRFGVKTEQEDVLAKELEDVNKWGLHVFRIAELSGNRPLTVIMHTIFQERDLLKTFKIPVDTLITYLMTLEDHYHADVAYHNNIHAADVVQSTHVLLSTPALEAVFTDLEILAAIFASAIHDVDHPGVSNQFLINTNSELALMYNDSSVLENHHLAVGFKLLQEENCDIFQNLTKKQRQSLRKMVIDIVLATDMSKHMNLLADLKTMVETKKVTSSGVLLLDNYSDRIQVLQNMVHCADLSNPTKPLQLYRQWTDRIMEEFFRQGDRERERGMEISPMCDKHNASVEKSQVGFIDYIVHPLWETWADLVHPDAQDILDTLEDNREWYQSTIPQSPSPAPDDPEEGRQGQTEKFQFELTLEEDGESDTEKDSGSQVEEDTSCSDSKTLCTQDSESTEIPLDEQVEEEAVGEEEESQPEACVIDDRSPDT
SMILES,inhibition at 10 µM [1],solubility at 90 min [2],inhibition at 10 µM [3],EC50 [4],inhibition at 10 µM [5],inhibition at 10 µM [6],EC50 [7],inhibition at 10 µM ([1]; 10 uM test compound),inhibition at 10 µM ([3]; 10 uM test compound),inhibition at 10 µM ([5]; 10 uM test compound),inhibition at 10 µM ([6]; 10 uM test compound),Ratio of tear volume (test compound to vehicle) [8]
"COC(=O)c1ccc(NC(=O)c2cc3nccc(-c4ccc(OC)c(OC)c4)n3n2)cc1 [Compound 11, methyl 4-(7-(3,4-dimethoxyphenyl)pyrazolo[1,5-a]pyrimidine-2-carboxamido)benzoate]",> 80%,< 0.1 µg/mL,> 80%,< 0.2 µM,> 80%,> 80%,< 0.2 µM,,,,,
"COC(=O)c1ccc(CNC(=O)c2cc3nccc(-c4ccc(OC)c(OC)c4)n3n2)cc1 [Compound 12, methyl 4-((7-(3,4-dimethoxyphenyl)pyrazolo [1,5-a]pyrimidine-2-carboxamido)methyl) benzoate]",,< 0.1 µg/mL,,0.2 to 2 µM,,,≥ 2 µM,50 to 80%,50 to 80%,> 80%,50 to 80%,
"COc1ccc(-c2ccnc3cc(C(=O)Nc4ccc(O)cc4)nn23)cc1OC [Compound 15, 7-(3,4-dimethoxyphenyl)-N-(4-hydroxyphenyl)pyrazolo[1,5-a]pyrimidine-2-carboxamide]",,< 0.1 µg/mL,,< 0.2 µM,,,< 0.2 µM,> 80%,> 80%,> 80%,> 80%,1.29
"COC(=O)c1ccc(NC(=O)c2cc3nccc(-c4ccc(OC)c(F)c4)n3n2)cc1 [Compound 33, methyl 4-(7-(3-fluoro-4-methoxyphenyl)pyrazolo [1,5-a]pyrimidine-2-carboxamido)benzoate]",,< 0.1 µg/mL,,0.2 to 2 µM,,,≥ 2 µM,50 to 80%,< 50%,50 to 80%,50 to 80%,
"COc1ccc(-c2ccnc3cc(C(=O)Nc4ccc(C(=O)N5CCN(C)CC5)cc4)nn23)cc1OC [Compound 97, 7-(3,4-dimethoxyphenyl)-N-(4-(4-methylpiperazine-1-carbonyl)phenyl)pyrazolo[1,5-a]pyrimidine-2-carboxamide]",,0.1 to 10 µg/mL,,0.2 to 2 µM,,,0.2 to 2 µM,> 80%,> 80%,> 80%,> 80%,0.95
"COC(=O)C(=Cc1ccccc1)NC(=O)c1cc2nccc(-c3ccc(OC)c(OC)c3)n2n1 [Compound 105, methyl 2-(7-(3,4-dimethoxyphenyl)pyrazolo [1,5-a]pyrimidine-2-carboxamido) 3-phenylacrylate]",,< 0.1 µg/mL,,< 0.2 µM,,,0.2 to 2 µM,> 80%,> 80%,> 80%,> 80%,
"COc1ccc(-c2ccnc3cc(NC(=O)Nc4ccc(C(=O)N5CCOCC5)cc4)nn23)cc1OC [Compound 129, 1-(7-(3,4-dimethoxyphenyl)pyrazolo[1,5-a]pyrimidin-2-yl)-3-(4-(morpholine-4-carbonyl)phenyl)urea]",,,,0.2 to 2 µM,,,≥ 2 µM,> 80%,> 80%,> 80%,> 80%,
"COc1ccc(-c2ccnc3cc(C(=O)Nc4ccc(C(=O)N5CCOCC5)cn4)nn23)cc1OC [Compound 135, 7-(3,4-dimethoxyphenyl)-N-(5-(morpholine-4-carbonyl)pyridin-2-yl) pyrazolo[1,5-a] pyrimidine-2-carboxamide]",,< 0.1 µg/mL,,< 0.2 µM,,,< 0.2 µM,> 80%,> 80%,> 80%,> 80%,
"COC(=O)c1ccc(NC(=O)c2cc3nccc(-c4ccc(OC)c(OC)c4)n3n2)c(F)c1 [Compound 136, methyl 4-(7-(3,4-dimethoxyphenyl)pyrazolo[1,5-a]pyrimidine-2-carboxamido)-3-fluorobenzoate]",,< 0.1 µg/mL,,,,,,> 80%,> 80%,> 80%,> 80%,
"COC(=O)C12CCC(NC(=O)c3cc4nccc(-c5ccc(OC)c(OC)c5)n4n3)(CC1)CC2 [Compound 144, methyl 4-(7-(3,4-dimethoxyphenyl)pyrazolo[1,5-a]pyrimidine-2-carboxamido)bicyclo[2.2.2]octane-1-carboxylate]",,< 0.1 µg/mL,,< 0.2 µM,,,< 0.2 µM,> 80%,> 80%,> 80%,> 80%,1.18
"COc1ccc(-c2ccnc3cc(C(=O)Nc4ccc(C(=O)N[C@H](C(=O)N5CCOCC5)C(C)C)cc4)nn23)cc1OC [Compound 147, (S)-7-(3,4-dimethoxyphenyl)-N-(4-((3-methyl-1-morpholino-1-oxobutan-2-yl)carbamoyl)phenyl) pyrazolo[1,5-a]pyrimidine-2-carboxamide]",,< 0.1 µg/mL,,< 0.2 µM,,,< 0.2 µM,> 80%,> 80%,> 80%,> 80%,1.03
"COc1ccc(-c2ccnc3cc(C(=O)Nc4ccc(OCCN5CCOCC5)cc4)nn23)cc1OC [Compound 198, 7-(3,4-dimethoxyphenyl)-N-(4-(2-morpholinoethoxy)phenyl)pyrazolo[1,5-a]pyrimidine-2-carboxamide]",,,,< 0.2 µM,,,< 0.2 µM,> 80%,> 80%,> 80%,> 80%,
"COc1ccc(-c2ccnc3cc(C(=O)Nc4ccc(N5CCOCC5)cn4)nn23)cc1OC [Compound 205, 7-(3,4-dimethoxyphenyl)-N-(5-morpholinopyridin-2-yl)pyrazolo[1,5-a]pyrimidine-2-carboxamide]",,,,< 0.2 µM,,,< 0.2 µM,> 80%,> 80%,> 80%,> 80%,1.12
"COc1ccc(-c2ccnc3cc(C(=O)N4CCN(C(=O)c5ccccc5)[C@@H](C)C4)nn23)cc1OC [Compound 210, (S)-(4-benzoyl-3-methylpiperazin-1-yl)(7-(3,4-dimethoxyphenyl)pyrazolo[1,5-a]pyrimidin-2-yl)methanone]",,0.1 to 10 µg/mL,,,,,,> 80%,> 80%,> 80%,> 80%,
